Experimental data as given in US20170355705A1 (GlaxoSmithKline Intellectual Property (No.2) Limited, priority 2014, published 2017).
Structures can show the parent of a compound that is named as a salt.

Target: T1, SIRT1 (Homo sapiens, UniProt Q96EB6)
T1 sequence (Q96EB6 1-747): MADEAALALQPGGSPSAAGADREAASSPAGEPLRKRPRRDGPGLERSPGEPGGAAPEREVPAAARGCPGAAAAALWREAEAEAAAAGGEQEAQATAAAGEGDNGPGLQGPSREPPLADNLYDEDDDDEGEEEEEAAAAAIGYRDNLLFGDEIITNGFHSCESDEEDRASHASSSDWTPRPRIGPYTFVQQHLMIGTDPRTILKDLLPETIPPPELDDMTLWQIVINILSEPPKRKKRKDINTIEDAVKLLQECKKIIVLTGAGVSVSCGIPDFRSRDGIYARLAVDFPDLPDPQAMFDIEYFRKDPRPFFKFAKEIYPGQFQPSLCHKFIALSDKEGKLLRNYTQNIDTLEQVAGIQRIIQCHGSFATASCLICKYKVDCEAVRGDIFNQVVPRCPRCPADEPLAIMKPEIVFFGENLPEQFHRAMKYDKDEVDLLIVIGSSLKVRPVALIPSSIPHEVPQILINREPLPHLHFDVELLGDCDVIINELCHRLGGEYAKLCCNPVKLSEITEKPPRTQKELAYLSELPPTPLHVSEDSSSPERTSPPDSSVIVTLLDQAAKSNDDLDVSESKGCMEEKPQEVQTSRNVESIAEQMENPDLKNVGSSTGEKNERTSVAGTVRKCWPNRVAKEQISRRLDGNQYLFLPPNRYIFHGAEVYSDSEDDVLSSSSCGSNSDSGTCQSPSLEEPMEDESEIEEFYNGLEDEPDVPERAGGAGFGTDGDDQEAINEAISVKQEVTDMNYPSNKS
Assay: Trp mass spectrometry assay of SIRT1 activity (EC1.5, percent maximum activation)
Assay type: biochemical
Details: Trp mass spectrometry assay; for TRP Activity (EC1.5): EC1.5 = concentration giving 150% activation of SIRT1; for TRP MAX RESP (percent maximum fold activation): percent maximum activation of SIRT1
Text: Mass spectrometry based assays were used to identify modulators of SIRT1 activity. […] The peptide was labeled with the fluorophore 5TMR (excitation 540 nm/emission 580 nm) at the C-terminus. The sequence of the peptide substrate was based on p53 with several modifications. In addition, the methionine residue naturally present in the sequence was replaced with the norleucine because the methionine may be susceptible to oxidation during synthesis and purification.
The Trp mass spectrometry assay was conducted as follows. […] The SIRT1 protein was obtained by cloning the SirT1 gene into a T7-promoter containing vector, which was then expressed in BL21(DE3) bacterial cells and purified as described in further detail below. Test compound was added at varying concentrations to this reaction mixture and the resulting reactions were monitored. After the 25 minute incubation with SIRT1, 10 μL of 10% formic acid was added to stop the reaction. The resulting reactions were sealed and frozen for later mass spec analysis. The relative SIRT1 activity was then determined by measuring the amount of O-acetyl-ADP-ribose (OAADPR) formed (or, alternatively, the amount of deacetylated Trp peptide generated) by the NAD-dependent sirtuin deacetylation reaction in the presence of varying concentrations of the test compound versus control reactions lacking the test compound. The degree to which the test agent activated deacetylation by SIRT1 was expressed as EC1.5 (i.e., the concentration of compound required to increase SIRT1 activity by 50% over the control lacking test compound), and Percent Maximum Activation (i.e., the maximum activity relative to control (100%) obtained for the test compound).
This time point was the same as that used for test compounds and, within the linear range, the endpoint represents a change in velocity.
For the above assay, SIRT1 protein was expressed and purified as follows. The SirT1 gene was cloned into a T7-promoter containing vector and transformed into BL21(DE3). The protein was expressed by induction with 1 mM IPTG as an N-terminal His-tag fusion protein at 18° C. overnight and harvested at 30,000×g. Cells were lysed with lysozyme in lysis buffer (50 mM Tris-HCl, 2 mM Tris[2-carboxyethyl]phosphine (TCEP), 10 μM ZnCl2, 200 mM NaCl) and further treated with sonication for 10 min for complete lysis. The protein was purified over a Ni-NTA column (Amersham) and fractions containing pure protein were pooled, concentrated and run over a sizing column (Sephadex S200 26/60 global). The peak containing soluble protein was collected and run on an Ion-exchange column (MonoQ). Gradient elution (200 mM-500 mM NaCl) yielded pure protein. This protein was concentrated and dialyzed against dialysis buffer (20 mM Tris-HCl, 2 mM TCEP) overnight. The protein was aliquoted and frozen at −80° C. until further use.
“NT” means not tested; “ND” means not determinable.

Row | SMILES | TRP Activity (EC1.5) | TRP MAX RESP (percent maximum fold activation)
1 | Cc1cc(-c2nc3c(c(C)c2C)N2CC[C@@H](C2)N3C(=O)Nc2ccccn2)ccn1 [Example 25, (4S)-8,9-dimethyl-7-(2-methylpyridin-4-yl)-N-(pyridin-2-yl)-3,4-dihydro-1,4-methanopyrido[2,3-b][1,4]diazepine-5(2H)-carboxamide] | B (EC1.5 1-25 μM) | A (Fold activation ≧150%)
2 | Cc1cc(-c2nc3c(cc2Cl)N2CC[C@@H](C2)N3C(=O)Nc2cc(OC[C@@H](O)CO)ccn2)ccn1 [Example 27, (4S)-8-chloro-N-(4-((S)-2,3-dihydroxypropoxy)pyridin-2-yl)-7-(2-methylpyridin-4-yl)-3,4-dihydro-1,4-methanopyrido[2,3-b][1,4]diazepine-5(2H)-carboxamide] | B (EC1.5 1-25 μM) | A (Fold activation ≧150%)
3 | Cl.O=C(Nc1ccnc(OC[C@@H](O)CO)n1)N1c2nc(-c3cccc(C(F)(F)F)c3)c(Cl)cc2N2CC[C@H]1C2 [Example 28, (4S)-8-chloro-N-(2-((S)-2,3-dihydroxypropoxy)pyrimidin-4-yl)-7-(3-(trifluoromethyl)phenyl)-3,4-dihydro-1,4-methanopyrido[2,3-b][1,4]diazepine-5(2H)-carboxamide, Hydrochloride] | A (EC1.5<1 μM) | A (Fold activation ≧150%)
4 | Cc1cc(-c2nc3c(cc2Cl)N2CC[C@@H](C2)N3C(=O)Nc2cnc(OC[C@H](O)CO)cn2)ccn1 [Example 29, (4S)-8-chloro-N-(5-((R)-2,3-dihydroxypropoxy)pyrazin-2-yl)-7-(2-methylpyridin-4-yl)-3,4-dihydro-1,4-methanopyrido[2,3-b][1,4]diazepine-5(2H)-carboxamide] | B (EC1.5 1-25 μM) | A (Fold activation ≧150%)
5 | O=C(Nc1ccnc(OC[C@@H](O)CO)n1)N1c2nc(-c3cccc(C(F)(F)F)c3)c(Cl)cc2N2CC[C@H]1C2 [Example 30, (4S)-8-chloro-N-(2-((S)-2,3-dihydroxypropoxy)pyrimidin-4-yl)-7-(3-(trifluoromethyl)phenyl)-3,4-dihydro-1,4-methanopyrido[2,3-b][1,4]diazepine-5(2H)-carboxamide] | A (EC1.5<1 μM) | A (Fold activation ≧150%)
6 | O=C(Nc1cc(OC[C@H](O)CO)ccn1)N1c2nc(-c3cccc(C(F)(F)F)c3)c(Cl)cc2N2CC[C@H]1C2 [Example 31, (4S)-8-chloro-N-(4-((R)-2,3-dihydroxypropoxy)pyridin-2-yl)-7-(3-(trifluoromethyl)phenyl)-3,4-dihydro-1,4-methanopyrido[2,3-b][1,4]diazepine-5(2H)-carboxamide] | B (EC1.5 1-25 μM) | A (Fold activation ≧150%)
7 | O=C(Nc1cc(OC[C@H](O)CO)ccn1)N1c2nc(-c3cccc(C(F)(F)F)c3)c(Cl)cc2N2CC[C@H]1C2 [Example 32, (4S)-8-chloro-N-(4-((R)-2,3-dihydroxypropoxy)pyridin-2-yl)-7-(3-(trifluoromethyl)phenyl)-3,4-dihydro-1,4-methanopyrido[2,3-b][1,4]diazepine-5(2H)-carboxamide, Hydrochloride] | B (EC1.5 1-25 μM) | A (Fold activation ≧150%)
8 | O=C(Nc1cnc(OC[C@@H](O)CO)cn1)N1c2nc(-c3cccc(C(F)(F)F)c3)c(Cl)cc2N2CC[C@H]1C2 [Example 33, (4S)-8-chloro-N-(5-((S)-2,3-dihydroxypropoxy)pyrazin-2-yl)-7-(3-(trifluoromethyl)phenyl)-3,4-dihydro-1,4-methanopyrido[2,3-b][1,4]diazepine-5(2H)-carboxamide] | B (EC1.5 1-25 μM) | A (Fold activation ≧150%)
9 | O=C(Nc1cnc(OC[C@H](O)CO)cn1)N1c2nc(-c3cccc(C(F)(F)F)c3)c(Cl)cc2N2CC[C@H]1C2 [Example 34, (4S)-8-chloro-N-(5-((R)-2,3-dihydroxypropoxy)pyrazin-2-yl)-7-(3-(trifluoromethyl)phenyl)-3,4-dihydro-1,4-methanopyrido[2,3-b][1,4]diazepine-5(2H)-carboxamide] | B (EC1.5 1-25 μM) | A (Fold activation ≧150%)
10 | O=C(Nc1ccccn1)N1c2nc(-c3cccc(C(F)(F)F)c3)c(Cl)cc2N2CC[C@H]1C2 [Example 35, (4S)-8-chloro-N-(pyridin-2-yl)-7-(3-(trifluoromethyl)phenyl)-3,4-dihydro-1,4-methanopyrido[2,3-b][1,4]diazepine-5(2H)-carboxamide] | A (EC1.5<1 μM) | A (Fold activation ≧150%)
11 | Cc1cc(-c2nc3c(cc2C)N2CC[C@@H](C2)N3C(=O)Nc2ccccn2)ccn1 [Example 36, (4S)-8-methyl-7-(2-methylpyridin-4-yl)-N-(pyridin-2-yl)-3,4-dihydro-1,4-methanopyrido[2,3-b][1,4]diazepine-5(2H)-carboxamide] | B (EC1.5 1-25 μM) | A (Fold activation ≧150%)
12 | Cc1cc(-c2nc3c(cc2Cl)N2CC[C@@H](C2)N3C(=O)Nc2ccnc(OC[C@@H](O)CO)c2)ccn1 [Example 37, (4S)-8-chloro-N-(2-((S)-2,3-dihydroxypropoxy)pyridin-4-yl)-7-(2-methylpyridin-4-yl)-3,4-dihydro-1,4-methanopyrido[2,3-b][1,4]diazepine-5(2H)-carboxamide] | B (EC1.5 1-25 μM) | A (Fold activation ≧150%)
13 | Cc1cc(-c2nc3c(cc2Cl)N2CC[C@@H](C2)N3C(=O)Nc2cc(OC[C@H](O)CO)ccn2)ccn1 [Example 38, (4S)-8-chloro-N-(4-((R)-2,3-dihydroxypropoxy)pyridin-2-yl)-7-(2-methylpyridin-4-yl)-3,4-dihydro-1,4-methanopyrido[2,3-b][1,4]diazepine-5(2H)-carboxamide] | B (EC1.5 1-25 μM) | A (Fold activation ≧150%)
14 | Cc1cc(-c2nc3c(cc2Cl)N2CC[C@@H](C2)N3C(=O)Nc2ccnc(OC[C@H](O)CO)c2)ccn1 [Example 39, (4S)-8-chloro-N-(2-((R)-2,3-dihydroxypropoxy)pyridin-4-yl)-7-(2-methylpyridin-4-yl)-3,4-dihydro-1,4-methanopyrido[2,3-b][1,4]diazepine-5(2H)-carboxamide] | B (EC1.5 1-25 μM) | A (Fold activation ≧150%)
15 | Cc1cc(-c2nc3c(cc2Cl)N2CC[C@@H](C2)N3C(=O)Nc2cnc(OC[C@@H](O)CO)cn2)ccn1 [Example 40, (4S)-8-chloro-N-(5-((S)-2,3-dihydroxypropoxy)pyrazin-2-yl)-7-(2-methylpyridin-4-yl)-3,4-dihydro-1,4-methanopyrido[2,3-b][1,4]diazepine-5(2H)-carboxamide] | B (EC1.5 1-25 μM) | A (Fold activation ≧150%)
